Results from paper PMC4259467, “Molecular Cloning, Characterization and Positively Selected Sites of the Glutathione S-Transferase Family from Locusta migratoria” (PLoS ONE, 2014).

Key:
LmGSTS5 = molecular target: T1, LmGSTS5 (Locusta migratoria, UniProt F4YUJ4); test: spectrophotometric GST assay, steady state; format: biochemical; conditions: co-substrate GSH; pH and temperature not given; read-out: K m ^CDNB
T1 construct: full-length ORF in pET28a, E. coli BL21(DE3), His-tag Ni-NTA purified
T1 sequence (F4YUJ4 1-202): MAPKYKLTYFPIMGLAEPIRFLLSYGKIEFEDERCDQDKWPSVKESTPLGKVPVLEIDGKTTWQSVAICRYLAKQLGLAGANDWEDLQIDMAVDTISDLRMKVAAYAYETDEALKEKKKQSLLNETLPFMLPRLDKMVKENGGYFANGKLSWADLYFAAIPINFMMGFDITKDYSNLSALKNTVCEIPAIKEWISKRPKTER
Source text: spectrophotometric GST assay, steady state on LmGSTS5

LmGSTD1 = molecular target: T2, LmGSTD1 (Locusta migratoria, UniProt E7BTM5); test: spectrophotometric GST assay, steady state; format: biochemical; conditions: co-substrate GSH; pH and temperature not given; read-out: K m ^CDNB
T2 construct: full-length ORF in pET28a, E. coli BL21(DE3), His-tag Ni-NTA purified
T2 sequence (E7BTM5 1-218): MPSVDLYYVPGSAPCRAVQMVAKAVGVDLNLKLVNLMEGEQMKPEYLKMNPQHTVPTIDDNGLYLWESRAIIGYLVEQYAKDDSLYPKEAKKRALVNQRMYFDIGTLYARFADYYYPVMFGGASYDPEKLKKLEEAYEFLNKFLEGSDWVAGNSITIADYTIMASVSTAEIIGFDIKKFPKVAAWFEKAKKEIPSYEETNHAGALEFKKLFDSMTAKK
Source text: spectrophotometric GST assay, steady state on LmGSTD1

## O=[N+]([O-])c1ccc(Cl)c([N+](=O)[O-])c1 [CDNB]
LmGSTS5
  Km: 253 ± 26 µM
LmGSTD1
  Km: 139 ± 8 µM
